From patent publication US20200024285A1, “NOVEL CHROMONE OXIME DERIVATIVE AND ITS USE AS ALLOSTERIC MODULATOR OF METABOTROPIC GLUTAMATE RECEPTORS” (Prexton Therapeutics SA, priority 2014, published 2020)
Read-outs that look alike come from different tables or passages of the source.

Assays:
plasma protein binding = format: in vitro ADME; conditions: read-out: plasma protein binding, free fraction
solubility in water = format: physicochemical; conditions: as hydrochloride salt
[1] = in vivo pharmacokinetics in male Sprague-Dawley rats, plasma and brain; conditions: rat; for Kp at 1.5 h: brain, T = 1.5 h, read-out: Brain/Plasma ratio (T = 1.5 h); for Kp at 1.5 h / AUC(0-inf): po
Method: PXT002331 and PXT001858 were administered per os (p.o.) at 10 mg/kg to male Sprague-Dawley rats. Volume of administration was 10 ml/kg. In parallel, PXT002331 was also administered intravenously (i.v.) at 1 mg/kg, with a volume of administration of 2 ml/kg. Blood samples (200 μl) were collected at time ranging from 15 minutes to 24 hours for the p.o. administration and from 5 minutes to 24 hours for the i.v. administration in ice-cold tubes containing 0.2% K2EDTA. Tubes were centrifuged at 10,000 rpm for 5 minutes at 4° C. The plasma (supernatant) was separated in another tube and stored at −80° C. until analysis. Two groups of 3 animals were used for each route of administration: in one group, blood samples were collected to determine the kinetics of plasma exposure over a 24-hour period, and in the second group, blood and brain were collected at one terminal time point (0.5, 1.0, 1.5, 2.0, 4.0 hours) to determine the kinetics of brain exposure and brain/plasma ratio.
The respective parent compound (free base) was analysed in plasma samples and in brain homogenate using a LC-MS/MS method. Concentrations are expressed in ng/ml of plasma or in ng/g of brain tissue.
(§1) Despite their similar oral absorption, PXT002331 has a higher brain/plasma ratio (6.5 versus 2.0 at T=1.5 h; see FIG. 4) leading to a 3-fold improvement in the brain AUC when compared to PXT001858. A posteriori, one potential hypothesis might rely on the difference of phase II conjugation in the intestine and liver during oral absorption. […] Nonetheless, this difference observed in vitro cannot by itself explain the unexpected advantageous PK results obtained with PXT002331. The results obtained in these experiments are furthermore summarized in Tables 1 to 3 below and in FIGS. 1 to 4.

human mGluR4 = human mGluR4 (Homo sapiens, UniProt Q14833); experiment: calcium assay for agonistic and/or positive allosteric modulator activity on human mGluR4; format: cell-based
human mGluR4, sequence (Q14833 33-912): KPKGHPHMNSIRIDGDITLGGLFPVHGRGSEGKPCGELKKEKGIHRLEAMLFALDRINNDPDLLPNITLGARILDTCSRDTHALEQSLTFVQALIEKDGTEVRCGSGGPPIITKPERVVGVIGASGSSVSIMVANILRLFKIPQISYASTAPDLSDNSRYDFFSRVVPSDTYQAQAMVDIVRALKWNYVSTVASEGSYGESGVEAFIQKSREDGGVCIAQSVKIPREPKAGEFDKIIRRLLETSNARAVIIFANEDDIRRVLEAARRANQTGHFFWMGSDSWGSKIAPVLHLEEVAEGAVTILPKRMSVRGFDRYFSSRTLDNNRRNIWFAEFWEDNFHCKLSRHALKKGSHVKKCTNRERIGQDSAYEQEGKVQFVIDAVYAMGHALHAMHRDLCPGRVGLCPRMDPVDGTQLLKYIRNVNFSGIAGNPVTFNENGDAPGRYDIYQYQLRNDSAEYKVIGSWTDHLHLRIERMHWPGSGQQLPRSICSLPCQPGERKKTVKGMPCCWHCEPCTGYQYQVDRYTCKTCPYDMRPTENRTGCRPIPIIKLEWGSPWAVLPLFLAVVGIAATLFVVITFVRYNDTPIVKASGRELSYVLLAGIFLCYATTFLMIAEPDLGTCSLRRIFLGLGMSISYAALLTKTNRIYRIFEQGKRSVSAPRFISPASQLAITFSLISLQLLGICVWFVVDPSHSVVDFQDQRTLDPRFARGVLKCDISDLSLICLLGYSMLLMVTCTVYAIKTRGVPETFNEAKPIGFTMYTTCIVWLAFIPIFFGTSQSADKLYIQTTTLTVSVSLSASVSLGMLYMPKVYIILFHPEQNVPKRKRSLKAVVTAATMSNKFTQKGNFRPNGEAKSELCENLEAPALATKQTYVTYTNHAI
Method: The compound of formula (I) according to the invention (i.e., PXT002331) was tested for its agonistic and/or positive allosteric modulator activity on human mGluR4 using the calcium assay described in Example 171 of WO 2011/051478.

[2] = phase I metabolic stability, CL (h); format: in vitro ADME; conditions: human
Method: (§2) The in vitro ADME profile of PXT002331 was also very similar with reference to phase I metabolic stability: CL (h/r): 55/101 μl/min/mg protein and intestinal absorption: CaCo-2 (A-B, pgp): 4.11.0.10-6 cm/s, no efflux.

[3] = system: MPTP macaque model of Parkinson's disease; experiment: MPTP macaque model of Parkinson's disease; format: in vivo, Macaca fascicularis
Method: FIGS. 5A-F: Evaluation of the anti-parkinsonian efficacy of PXT002331 in the 1-methyl-4-phenyl-1,2,3,6-tetrahydropyridine (MPTP) macaque model of Parkinson's disease (see Example 3). (A) PXT002331 as a stand-alone treatment; oral administration twice a day during 4 days, assessment of parkinsonian scores at day 4; data are mean+s.e.m. over 2 hours observation (n=7 per group; 1 of the 8 monkeys initially used was excluded); “Veh”=vehicle; “LD opt”=L-dopa optimal dose”; *=P<0.05 vs Veh; ***=P<0.001 vs Veh; statistical analysis: Friedman followed by Dunn's. (B) Combined treatment using PXT002331 (25 mg/kg)+low dose of L-dopa (4-9 mg/kg)−parkinsonism time course; oral administration twice a day during 4 days, assessment at day #4; L-dopa optimal dose (“LDopt”): >20 mg/kg; L-dopa suboptimal dose (“LDso”): 4-9 mg/kg; combined administration of L-dopa (suboptimal dose) and PXT002331: twice a day/4 days. […] (D) Combined treatment using PXT002331+low dose of L-dopa−dose-response evaluation for different doses of PXT002331; assessment of parkinsonian scores at day 4; “Veh”=vehicle; “low LD”=low dose of L-dopa; “LD opt”=optimal dose of L-dopa; *=P<0.05 vs low LD; statistical analysis: non-parametric one-way repeated, measures ANOVA (Friedman's test), followed by Dunn's multiple comparison; N=7. (E) Computerized locomotor activity in early-stage PD monkey model for PXT002331 in combination with L-dopa (low dose or optimal dose) upon oral administration; *=P<0.05 vs vehicle; **=P<0.01 vs vehicle; ***=P<0.001 vs vehicle; statistical analysis: Friedman followed by Dunnett's; N=5 (6 monkeys/1 excluded). (F) Combined treatment using PXT002331+optimal dose of L-dopa−disability score and dyskinesia score. The anti-parkinsonian efficacy of the compound of formula (I) according to the present invention (i.e., PXT002331) was evaluated in the 1-methyl-4-phenyl-1,2,3,6-tetrahydropyridine (MPTP) macaque model of Parkinson's disease (using macaques of the species Macaca fascicularis), which reproduces most of the clinical and pathological hallmarks of Parkinson's disease and is considered a “gold standard” (see Porras G et al., Cold Spring Harb Perspect Med., 2(3):a009308, 2012 and references cited therein for a general description of the MPTP model). […] In this experiment, PXT002331 was orally administered twice a day during a period of 4 days, and the parkinsonian score was assessed at day 4 over 2 hours of observation (data are mean values+standard error of the mean (s.e.m.); n=7 monkeys per group). The anti-parkinsonian efficacy of PXT002331 (25 mg/kg) was further evaluated in combination with low (suboptimal) doses of L-dopa (levodopa; 4-9 mg/kg) (see FIGS. 5B and 5C). Doses were orally administered twice a day during 4 days, and assessment of parkinsonian scores took place at day 4 (between 1 and 2 h after L-dopa administration, i.e., between 2 and 3 h after PXT002331 administration). […] The results of a dose-response evaluation of the combination of PXT002331 (at doses from 2 mg/kg to 100 mg/kg) with L-dopa (low dose) are shown in FIG. 5D (the assessment of parkinsonian scores took place at day 4). […] In this experiment, each monkey was equipped with a detector of movements and signals were collected with 24 light beams and a video track recorder in order to descriminate all types of movements. The locomotor activity was measured during 1 hour.

[4] = phase I metabolic stability, CL (r); format: in vitro ADME; conditions: rat
Method: as §2

[5] = system: UGT (UDP-Glucuronosyl transferase); experiment: in vitro glucuronidation in rat liver microsomes; format: in vitro ADME; conditions: in vitro in the presence of UGT
Method: as §1

CaCo-2 = experiment: intestinal absorption CaCo-2 (A-B, pgp); format: in vitro ADME
Method: as §2

[6] = male, Sprague-Dawley, 10 mg/kg p.o.
[7] = male, Sprague-Dawley, plasma, 10 mg/kg p.o.

## O/N=c1\cc(-c2cc3sccc3cn2)oc2ccc(OCCN3CCOCC3)cc12 [PXT001858, reference compound]
Plasma protein binding
  fraction unbound: < 0.01
Solubility in water
  solubility: > 10000 µg/mL
[1]; [6]
  Kp at 1.5 h: 2
[1]; [7]
  AUC(0-inf): 394 ng·h/mL
[1]; 10 mg/kg p.o.
  Brain AUC inf: 838 ng·h/g
  Cmax (Brain): 521 ng/G tissue
Human mGluR4; read-out: pEC50 on human mGluR4 (converted)
  EC50: 36.3 nM

## ON=c1cc(-c2cc3sccc3cn2)oc2ccc(CCCN3CCOCC3)cc12 [PXT002331, 6-(3-morpholin-4-yl-propyl)-2-(thieno[3,2-c]pyridin-6-yl)-4H-chromen-4-one oxime]
Plasma protein binding
  fraction unbound: < 0.01
[2]
  microsomal CLint: 55 µL/min/mg
[3]; 25 mg/kg p.o. + L-dopa 4-9 mg/kg, twice a day 4 days, day 4
  parkinsonian score, combined with suboptimal dose of L-dopa vs L-dopa (suboptimal dose) alone: considerable improvement in parkinsonian score
[3]; 25 mg/kg p.o., early stage PD monkey model, measured during 1 hour
  locomotor activity in combination with low or optimal dose of L-dopa: significant improvement in locomotor activity
[3]; 25 to 100 mg/kg
  induction of dyskinesia in combination with L-dopa (optimal dose): without inducing dyskinesia
[3]; increasing doses, 25 to 100 mg/kg
  disability score in combination with L-dopa (optimal dose): improvement in the disability score
[3]; p.o. twice a day for 4 days, score at day 4 over 2 h
  anti-parkinsonian activity (parkinsonian score), stand-alone treatment: potent anti-parkinsonian activity
[4]
  microsomal CLint: 101 µL/min/mg
[5]
  level of glucuronidation compared to PXT001858: much lower level of glucuronidation
Solubility in water
  solubility: > 10000 µg/mL
[1]; [6]
  Kp at 1.5 h: 6.5
[1]; male, Sprague-Dawley, plasma, oral, 10 mg/kg p.o. vs 1 mg/kg i.v.
  bioavailability: 39%
[1]; [7]
  AUC(0-inf): 432 ng·h/mL
[1]; 10 mg/kg p.o.
  Brain AUC inf: 2713 ng·h/g
  Cmax (Brain): 818 ng/G tissue
  improvement in brain AUC compared to PXT001858: 3 fold
  plasma Cmax relative to PXT001858: 0.7 fold
  plasma exposure AUC relative to PXT001858: 1.1 fold
Human mGluR4; read-out: EC50 corresponding to pEC50 (converted)
  EC50: ~76 nM
CaCo-2
  CaCo-2 efflux (pgp): no efflux
